Values joined by “and” are separate entries in the source; they are usually repeats but may differ in a detail not shown here. Equal values may be shown once.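 Results reflect a 48-hour exposure of cells in 96-well plates to compound at five concentrations. GI50 marks 50% less growth. TGI marks complete inhibition of growth.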
What was measured:
Experiment in all cases: NCI-60 cell line screen, 48 h
LOX IMVI melanoma = tested on: LOX IMVI melanoma
SNB-75 CNS = tested on: SNB-75 CNS
IGROV1 ovarian = tested on: IGROV1 ovarian
SF-268 CNS = tested on: SF-268 CNS
SK-MEL-5 melanoma = tested on: SK-MEL-5 melanoma
NCI-H460 lung = tested on: NCI-H460 lung
HS 578T breast = tested on: HS 578T breast
NCI-H522 lung = tested on: NCI-H522 lung
OVCAR-5 ovarian = tested on: OVCAR-5 ovarian
MALME-3M melanoma = tested on: MALME-3M melanoma

SMILES: CN(C)CCCC1(c2ccc(F)cc2)OCc2cc(-c3cc4ccccc4s3)ccc21 (configuration not stated)
- GI50 (LOX IMVI melanoma): 1.64 µM
- TGI (LOX IMVI melanoma): 3.13 µM
- GI50 (SNB-75 CNS): 1.24 µM
- TGI (SNB-75 CNS): 2.58 µM
- GI50 (IGROV1 ovarian): 1.14 µM
- TGI (IGROV1 ovarian): 2.46 µM
- GI50 (SF-268 CNS): 1.65 µM
- TGI (SF-268 CNS): 3.29 µM
- GI50 (SK-MEL-5 melanoma): 1.69 µM
- TGI (SK-MEL-5 melanoma): 3.05 µM
- GI50 (NCI-H460 lung): 1.93 µM
- TGI (NCI-H460 lung): 3.67 µM
- GI50 (HS 578T breast): 1.8 µM
- TGI (HS 578T breast): 3.96 µM
- GI50 (NCI-H522 lung): 1.7 µM
- TGI (NCI-H522 lung): 3.28 µM
- GI50 (OVCAR-5 ovarian): 1.58 µM
- TGI (OVCAR-5 ovarian): 2.92 µM
- GI50 (MALME-3M melanoma): 1.54 µM
- TGI (MALME-3M melanoma): 2.98 µM

SMILES: C=C1C(=O)O[C@H]2[C@H]1CC/C(COC(=O)CCCc1c[nH]c3ccccc13)=C\CC[C@@]1(C)O[C@@H]21
- GI50 (LOX IMVI melanoma): 1.55 µM
- TGI (LOX IMVI melanoma): 2.95 µM
- GI50 (SNB-75 CNS): 12.6 µM
- TGI (SNB-75 CNS): 26.6 µM
- GI50 (IGROV1 ovarian): 1.63 µM
- TGI (IGROV1 ovarian): 3.61 µM
- GI50 (SF-268 CNS): 1.69 µM
- TGI (SF-268 CNS): 3.46 µM
- GI50 (SK-MEL-5 melanoma): 1.74 µM
- TGI (SK-MEL-5 melanoma): 3.13 µM
- GI50 (NCI-H460 lung): 4.54 µM
- TGI (NCI-H460 lung): 19.2 µM
- GI50 (HS 578T breast): 3.19 µM
- TGI (HS 578T breast): 20.9 µM
- GI50 (NCI-H522 lung): 1.57 µM
- TGI (NCI-H522 lung): 3.47 µM
- GI50 (OVCAR-5 ovarian): 1.89 µM
- TGI (OVCAR-5 ovarian): 3.98 µM
- GI50 (MALME-3M melanoma): 1.79 µM
- TGI (MALME-3M melanoma): 3.56 µM

SMILES: Nc1nc(SCc2ccccc2Cl)cc(C(=O)O)n1
- TGI (LOX IMVI melanoma): > 100 µM
- TGI (SNB-75 CNS): > 100 µM
- TGI (IGROV1 ovarian): > 100 µM
- TGI (SF-268 CNS): > 100 µM
- TGI (SK-MEL-5 melanoma): > 100 µM
- TGI (NCI-H460 lung): > 100 µM
- TGI (HS 578T breast): > 100 µM
- TGI (NCI-H522 lung): > 100 µM
- TGI (OVCAR-5 ovarian): > 100 µM
- TGI (MALME-3M melanoma): > 100 µM

SMILES: Cn1c(-c2ccccc2)c(/C=C/C2=[N+](C)c3ccccc3C2(C)C)c2ccccc21
- GI50 (LOX IMVI melanoma): 0.527 µM
- TGI (LOX IMVI melanoma): 3.25 µM
- GI50 (SNB-75 CNS): 1.63 µM
- TGI (SNB-75 CNS): 10.7 µM
- GI50 (IGROV1 ovarian): 1.87 µM
- TGI (IGROV1 ovarian): 6.07 µM
- GI50 (SF-268 CNS): 1.32 µM
- TGI (SF-268 CNS): 12.9 µM
- GI50 (SK-MEL-5 melanoma): 0.363 µM
- TGI (SK-MEL-5 melanoma): 1.35 µM
- GI50 (NCI-H460 lung): 0.58 µM
- TGI (NCI-H460 lung): 8.24 µM
- GI50 (HS 578T breast): 1.08 µM
- TGI (HS 578T breast): 16.6 µM
- GI50 (NCI-H522 lung): 0.863 µM
- TGI (NCI-H522 lung): 3.78 µM
- GI50 (OVCAR-5 ovarian): 3.96 µM
- TGI (OVCAR-5 ovarian): 20 µM
- GI50 (MALME-3M melanoma): 0.68 µM
- TGI (MALME-3M melanoma): 3.1 µM

SMILES: CCC1(OC(=O)CN)C(=O)OCc2c1cc1n(c2=O)Cc2cc3ccccc3nc2-1 (configuration not stated)
- GI50 (LOX IMVI melanoma): 0.0089 µM
- GI50 (SNB-75 CNS): 0.0183 µM
- TGI (SNB-75 CNS): 0.246 µM and 0.484 µM
- GI50 (IGROV1 ovarian): 0.134 µM
- TGI (IGROV1 ovarian): 0.726 µM and 2.21 µM
- GI50 (SF-268 CNS): 0.00689 µM
- TGI (SF-268 CNS): 14.2 µM
- GI50 (SK-MEL-5 melanoma): 0.0187 µM and < 0.0128 µM
- TGI (SK-MEL-5 melanoma): 0.107 µM and 0.0329 µM
- GI50 (NCI-H460 lung): 0.00329 µM
- TGI (HS 578T breast): > 90.7 µM
- GI50 (NCI-H522 lung): 0.0362 µM
- TGI (NCI-H522 lung): 0.59 µM and 0.624 µM
- GI50 (OVCAR-5 ovarian): 0.0728 µM
- TGI (OVCAR-5 ovarian): 0.6 µM and 0.533 µM
- GI50 (MALME-3M melanoma): 0.196 µM
- TGI (MALME-3M melanoma): 0.802 µM and 3.75 µM

SMILES: COc1ccc(/C=C2\SC(=Nc3ccccc3)NC2=O)cc1
- GI50 (LOX IMVI melanoma): 5.5 µM
- TGI (LOX IMVI melanoma): 19.6 µM
- GI50 (SNB-75 CNS): 2.42 µM
- TGI (SNB-75 CNS): 10.9 µM
- GI50 (IGROV1 ovarian): 13.6 µM
- TGI (IGROV1 ovarian): > 100 µM
- GI50 (SF-268 CNS): 8.18 µM
- TGI (SF-268 CNS): 88.3 µM
- GI50 (SK-MEL-5 melanoma): 7.63 µM
- TGI (SK-MEL-5 melanoma): 30.5 µM
- GI50 (NCI-H460 lung): 3.36 µM
- TGI (NCI-H460 lung): 13.4 µM
- GI50 (HS 578T breast): 4.32 µM
- TGI (HS 578T breast): 40.7 µM
- GI50 (NCI-H522 lung): 4.54 µM
- TGI (NCI-H522 lung): 24.9 µM
- GI50 (OVCAR-5 ovarian): 12.5 µM
- TGI (OVCAR-5 ovarian): > 100 µM
- GI50 (MALME-3M melanoma): 19 µM
- TGI (MALME-3M melanoma): 99.8 µM

SMILES: CC(=O)O[C@H]1C(=O)[C@@]2(C)[C@H]([C@H](OC(=O)c3ccccc3)[C@]3(O)C[C@H](OC(=O)[C@H](OC(=O)OC[C@H]4COC(C)(C)O4)[C@@H](NC(=O)c4ccccc4)c4ccccc4)C(C)=C1C3(C)C)[C@]1(OC(C)=O)CO[C@@H]1C[C@@H]2O
- GI50 (LOX IMVI melanoma): 0.014 µM
- TGI (LOX IMVI melanoma): > 33.3 µM
- GI50 (SNB-75 CNS): 0.00333 µM
- TGI (SNB-75 CNS): 0.0697 µM
- GI50 (IGROV1 ovarian): 0.0494 µM
- TGI (IGROV1 ovarian): > 33.3 µM
- GI50 (SF-268 CNS): 0.165 µM
- TGI (SF-268 CNS): > 33.3 µM
- GI50 (SK-MEL-5 melanoma): 0.0832 µM
- TGI (SK-MEL-5 melanoma): > 33.3 µM
- GI50 (NCI-H460 lung): 0.00601 µM
- TGI (NCI-H460 lung): > 33.3 µM
- GI50 (HS 578T breast): 0.0166 µM
- TGI (HS 578T breast): 0.39 µM
- GI50 (NCI-H522 lung): 0.0324 µM
- TGI (NCI-H522 lung): > 33.3 µM
- GI50 (OVCAR-5 ovarian): 0.0433 µM
- TGI (OVCAR-5 ovarian): > 33.3 µM
- GI50 (MALME-3M melanoma): 0.227 µM
- TGI (MALME-3M melanoma): > 33.3 µM

SMILES: CCCCCCCC/C=C1\CCC(CN2CCOCC2)C1=O (configuration not stated)
- TGI (LOX IMVI melanoma): 9.94 µM
- TGI (SNB-75 CNS): 23.5 µM
- TGI (IGROV1 ovarian): 21 µM
- TGI (SF-268 CNS): 21.1 µM
- TGI (SK-MEL-5 melanoma): 23.2 µM
- TGI (NCI-H460 lung): 39.4 µM
- TGI (HS 578T breast): 50.6 µM
- TGI (NCI-H522 lung): 6.79 µM
- TGI (OVCAR-5 ovarian): 36.5 µM
- TGI (MALME-3M melanoma): 24.7 µM

SMILES: COc1ccc(NC(=O)c2sc3nc(C)c(C(=O)/C=C/c4cccc(OC)c4)cc3c2N)cc1
- GI50 (LOX IMVI melanoma): 0.906 µM
- TGI (LOX IMVI melanoma): 1.71 µM
- GI50 (SNB-75 CNS): 1.45 µM
- TGI (SNB-75 CNS): 4.87 µM
- GI50 (IGROV1 ovarian): 1.03 µM
- TGI (IGROV1 ovarian): 2.83 µM
- GI50 (SF-268 CNS): 2.07 µM
- TGI (SF-268 CNS): 14.1 µM
- GI50 (SK-MEL-5 melanoma): 3.55 µM
- TGI (SK-MEL-5 melanoma): 10.7 µM
- GI50 (NCI-H460 lung): 1.07 µM
- TGI (NCI-H460 lung): 2.45 µM
- GI50 (HS 578T breast): 4.5 µM
- TGI (HS 578T breast): > 50 µM
- GI50 (NCI-H522 lung): 1.38 µM
- TGI (NCI-H522 lung): 5.41 µM
- GI50 (OVCAR-5 ovarian): 1.62 µM
- TGI (OVCAR-5 ovarian): 9 µM
- GI50 (MALME-3M melanoma): 3.85 µM
- TGI (MALME-3M melanoma): 45 µM

SMILES: COc1ccc(/C(C#N)=C/c2cc(OC)c(OC)c(OC)c2)cc1
- GI50 (LOX IMVI melanoma): 22.2 µM
- TGI (LOX IMVI melanoma): > 100 µM
- GI50 (SNB-75 CNS): 11.6 µM
- TGI (SNB-75 CNS): 87.7 µM
- GI50 (IGROV1 ovarian): 29.2 µM
- TGI (IGROV1 ovarian): > 100 µM
- GI50 (SF-268 CNS): 39.6 µM
- TGI (SF-268 CNS): > 100 µM
- GI50 (SK-MEL-5 melanoma): 10.7 µM
- TGI (SK-MEL-5 melanoma): 28.7 µM
- GI50 (NCI-H460 lung): 29.6 µM
- TGI (NCI-H460 lung): > 100 µM
- GI50 (HS 578T breast): 38.7 µM
- TGI (HS 578T breast): > 100 µM
- GI50 (NCI-H522 lung): 15.7 µM
- TGI (NCI-H522 lung): 56.3 µM
- GI50 (OVCAR-5 ovarian): 35.3 µM
- TGI (OVCAR-5 ovarian): > 100 µM
- GI50 (MALME-3M melanoma): 7.68 µM
- TGI (MALME-3M melanoma): 56.7 µM

— PubChem BioAssay (NCI)
